Measurements as given in patent publication US11447482B1, “Imidazopyridine and oxazolopyridine derivatives and analogs thereof, methods of preparation thereof, methods of HIF-2A pathway inhibition, and induction of ferroptosis” (KUDA Therapeutics, Inc., priority 2019, dated 2022).
Where “and” joins values, the source holds several entries; their conditions need not be identical. Equal values may be shown once. Read-outs that look alike come from different tables or passages of the source.

How the values were obtained:
[1] = Bioavailability determination of KD025HCl in mice (plasma levels after IV or PO); format: in vivo; conditions: for MRT last: read-out: MRT0-last
Procedure: To determine the bioavailability KD025HCl, serum concentrations of KD025HCl were determined after varying durations following oral or intravenous (IV) administration. Doses were validated by LC/MS/MS.
For IV administration, 264 μl of N-Methyl-2-Pyrrolidone (NMP) was added to 1.221 mg of KD025HCl, and the solution vortexed and sonicated until complete dissolution. Then, 2.374 ml of 10% (v/v) solutol in water for injection was added, and the solution vortexed, then sonicated with a bath sonicator. The final dosing formulation of a brownish colored clear solution. A single 2 mg/kg dose (5 ml/kg) was administered IV each to nine male Swiss albino mice.
For oral administration (PO), […] of Tween-80 was added to 3.38 mg of KD025HCl, triturated, then 2.893 ml of 0.5% methyl cellulose was added in parts with continuous trituration then vortexed. The final dosing formulation was a brownish colored clear solution. A single 10 mg/kg dose (10 ml/kg) was administered PO each to nine male Swiss albino mice.
Calibration Curve & QC preparation: 2.0 μl of calibration curve standards were added to […] of blank matrix and precipitated with 200 μl of Acetonitrile containing an internal standard at 200 ng/ml. The solution was vortexed for 5 min at 850 rpm, then centrifuged at 4000 rpm for 5 min at 4° C. 110 μl of the supernatant was obtained and diluted with 130 μl of (Methanol:water, 1:1 v/v). Sample Preparation: 50 μl of sample was precipitated with 200 μl of Acetonitrile containing the internal standard at 200 ng/ml. The mixture was vortexed for 5 min at 850 rpm, then centrifuged at 4000 rpm for 5 min at 4° C. 110 μL of supernatant was obtained and diluted with 130 μL of (Methanol:water, 1:1 v/v).
Using this procedure, the plasma levels of KD025HCl after either IV or PO administration was determined, and bioavailability as well as other pharmacokinetic parameters were determined and shown in Table 6.

[2] = tested on: GPX4; assay: Western blot of treated 786-0 cells: GPX4; format: cell-based, human; conditions: higher concentrations of compound, FIG. 4 Part D
Procedure: (§1) Western blots were performed to determine the effects of the compounds on levels of HIF-2α and other relevant proteins. 786-0 (pVHL deficient clear cell kidney cancer cells) were purchased from ATCC were plated at 1×10E5 cells/well in 2 ml DMEM with 10% FBS/well in 6-well tissue culture plates. Cells were allowed to adhere overnight in a humidified incubator at 37° C. with 5% CO2, after which the appropriate concentrations of compounds in DMSO were added. DMSO concentrations were kept constant in all wells. After 24 hour's exposure to the compounds, cells were lysed and subjected to western blotting according to standard protocols (Polek, Talpaz et al. 2003). Antibodies for HIF-2α and Glyceraldehyde 3-Phosphate Dehydrogenase (GAPDH) were purchased from Cell Signaling Technology (Danvers, Mass.), whereas antibodies to iron responsive element binding protein 2 (IRP2) and Glutathione Peroxidase 4 (GPX4) were from Santa Cruz Biotechnology (Dallas, Tex.) and R&D Systems, Inc (Minneapolis, Minn.). Representative data in FIG. 3 show a dose-dependent effect of compounds in decreasing HIF-2α. Compounds also impact cellular iron sensing given by increased IRP2, which taken together indicate that cells sense decreased amounts of available iron. Representative data shown in FIG. 5 Part C show a dose dependent effect of the compounds on GPX4, which may indicate decreased resistance to ferroptosis.

[3] = tested on: HIF-2α; assay: Western blot of treated 786-0 cells: HIF-2α; format: cell-based, human; conditions: 786-0 CCRCC cells, 24 hours
Procedure: as §1

[4] = IV 2.00 mg/kg, 24.00 h, Swiss albino mice, BLQ: Below limits of quantitation
[5] = IV 2.00 mg/kg, Swiss albino mice, plasma
[6] = male, mouse, IV 2.00 mg/kg, Swiss albino mice, plasma
[7] = male, mouse, PO 10.00 mg/kg, Swiss albino mice, plasma

- Plasma concentration, individual animals (M1-, M2-, M3-) ([1]; IV 2.00 mg/kg, 0.08 h, Swiss albino mice, 2 mg/kg): 3949.80 ng/mL and 3776.46 ng/mL
- Plasma concentration, individual animals (M1-, M2-, M3-) ([1]; IV 2.00 mg/kg, 0.25 h, Swiss albino mice, 2 mg/kg): 2069.26 ng/mL and 3078.66 ng/mL
- Plasma concentration, individual animals (M1-, M2-, M3-) ([1]; IV 2.00 mg/kg, 0.50 h, Swiss albino mice, 2 mg/kg): 1527.09 ng/mL and 2079.24 ng/mL
- Plasma concentration, individual animals (M1-, M2-, M3-) ([1]; IV 2.00 mg/kg, 4.00 h, Swiss albino mice, 2 mg/kg): 31.51 ng/mL and 45.40 ng/mL
- Plasma concentration, Mean [1, 4]: BLQ
- Plasma concentration, individual animals (M1-, M2-, M3-) [1, 4]: BLQ
- AUCExtra [1, 5]: 1.15%
- Co [1, 5]: 5481.64 ng/mL
- Plasma concentration, individual animals (M1-, M2-, M3-) ([1]; PO 10.00 mg/kg, 0.50 h, Swiss albino mice, 10 mg/kg): 1712.09 ng/mL and 2056.44 ng/mL
- Plasma concentration, individual animals (M1-, M2-, M3-) ([1]; PO 10.00 mg/kg, 1.00 h, Swiss albino mice, 10 mg/kg): 784.84 ng/mL and 1081.06 ng/mL
- Plasma concentration, individual animals (M1-, M2-, M3-) ([1]; PO 10.00 mg/kg, 2.00 h, Swiss albino mice, 10 mg/kg): 861.31 ng/mL and 1052.53 ng/mL
- Plasma concentration, individual animals (M1-, M2-, M3-) ([1]; PO 10.00 mg/kg, 6.00 h, Swiss albino mice, 10 mg/kg): 93.52 ng/mL and 126.29 ng/mL
- Plasma concentration, individual animals (M1-, M2-, M3-) ([1]; PO 10.00 mg/kg, 8.00 h, Swiss albino mice, 10 mg/kg): 50.78 ng/mL and 99.61 ng/mL
- Plasma concentration, Mean ([1]; PO 10.00 mg/kg, 24.00 h, Swiss albino mice, BLQ: Below limits of quantitation): BLQ
- Plasma concentration, individual animals (M1-, M2-, M3-) ([1]; PO 10.00 mg/kg, 24.00 h, Swiss albino mice, BLQ: Below limits of quantitation, 10 mg/kg): BLQ
- AUCExtra ([1]; PO 10.00 mg/kg, Swiss albino mice, plasma): 9.83%
- concentration at 0.08 h ([1]; male, Swiss albino, mouse, plasma, iv, 2 mg/kg, IV 2.00 mg/kg, 0.08 h, read-out: Plasma concentration, Mean): 4170 ng/mL
- concentration at 0.08 h ([1]; male, Swiss albino, mouse, plasma, iv, 2 mg/kg, IV 2.00 mg/kg, 0.08 h, read-out: Plasma concentration, individual animals (M1-, M2-, M3-)): 4790 ng/mL
- concentration at 0.25 h ([1]; male, Swiss albino, mouse, plasma, iv, 2 mg/kg, IV 2.00 mg/kg, 0.25 h, read-out: Plasma concentration, Mean): 2340 ng/mL
- concentration at 0.25 h ([1]; male, Swiss albino, mouse, plasma, iv, 2 mg/kg, IV 2.00 mg/kg, 0.25 h, read-out: Plasma concentration, individual animals (M1-, M2-, M3-)): 1860 ng/mL
- concentration at 0.5 h ([1]; male, Swiss albino, mouse, plasma, iv, 2 mg/kg, IV 2.00 mg/kg, 0.50 h, read-out: Plasma concentration, Mean): 1700 ng/mL
- concentration at 0.5 h ([1]; male, Swiss albino, mouse, plasma, iv, 2 mg/kg, IV 2.00 mg/kg, 0.50 h, read-out: Plasma concentration, individual animals (M1-, M2-, M3-)): 1480 ng/mL
- concentration at 1 h ([1]; male, Swiss albino, mouse, plasma, iv, 2 mg/kg, IV 2.00 mg/kg, 1.00 h, read-out: Plasma concentration, Mean): 790 ng/mL
- concentration at 2 h ([1]; male, Swiss albino, mouse, plasma, iv, 2 mg/kg, IV 2.00 mg/kg, 2.00 h, read-out: Plasma concentration, Mean): 407 ng/mL
- concentration at 4 h ([1]; male, Swiss albino, mouse, plasma, iv, 2 mg/kg, IV 2.00 mg/kg, 4.00 h, read-out: Plasma concentration, Mean): 38 ng/mL
- concentration at 4 h ([1]; male, Swiss albino, mouse, plasma, iv, 2 mg/kg, IV 2.00 mg/kg, 4.00 h, read-out: Plasma concentration, individual animals (M1-, M2-, M3-)): 37.2 ng/mL
- concentration at 8 h ([1]; male, Swiss albino, mouse, plasma, iv, 2 mg/kg, IV 2.00 mg/kg, 8.00 h, read-out: Plasma concentration, Mean): 18.6 ng/mL
- Vd ([1]; male, Swiss albino, mouse, plasma, iv, 2 mg/kg, IV 2.00 mg/kg, plasma, read-out: Vd): 1.24 L/kg
- Vd ([1]; male, Swiss albino, mouse, plasma, iv, 2 mg/kg, IV 2.00 mg/kg, plasma, read-out: Vss): 0.72 L/kg
- concentration at 0.25 h ([1]; male, Swiss albino, mouse, plasma, po, 10 mg/kg, PO 10.00 mg/kg, 0.25 h, read-out: Plasma concentration, Mean): 1260 ng/mL
- concentration at 0.5 h ([1]; male, Swiss albino, mouse, plasma, po, 10 mg/kg, PO 10.00 mg/kg, 0.50 h, read-out: Plasma concentration, Mean): 1910 ng/mL
- concentration at 0.5 h ([1]; male, Swiss albino, mouse, plasma, po, 10 mg/kg, PO 10.00 mg/kg, 0.50 h, read-out: Plasma concentration, individual animals (M1-, M2-, M3-)): 1970 ng/mL
- concentration at 1 h ([1]; male, Swiss albino, mouse, plasma, po, 10 mg/kg, PO 10.00 mg/kg, 1.00 h, read-out: Plasma concentration, Mean): 1140 ng/mL
- concentration at 1 h ([1]; male, Swiss albino, mouse, plasma, po, 10 mg/kg, PO 10.00 mg/kg, 1.00 h, read-out: Plasma concentration, individual animals (M1-, M2-, M3-)): 1570 ng/mL
- concentration at 2 h ([1]; male, Swiss albino, mouse, plasma, po, 10 mg/kg, PO 10.00 mg/kg, 2.00 h, read-out: Plasma concentration, Mean): 953 ng/mL
- concentration at 2 h ([1]; male, Swiss albino, mouse, plasma, po, 10 mg/kg, PO 10.00 mg/kg, 2.00 h, read-out: Plasma concentration, individual animals (M1-, M2-, M3-)): 945 ng/mL
- concentration at 4 h ([1]; male, Swiss albino, mouse, plasma, po, 10 mg/kg, PO 10.00 mg/kg, 4.00 h, read-out: Plasma concentration, Mean): 170 ng/mL
- concentration at 6 h ([1]; male, Swiss albino, mouse, plasma, po, 10 mg/kg, PO 10.00 mg/kg, 6.00 h, read-out: Plasma concentration, Mean): 127 ng/mL
- concentration at 6 h ([1]; male, Swiss albino, mouse, plasma, po, 10 mg/kg, PO 10.00 mg/kg, 6.00 h, read-out: Plasma concentration, individual animals (M1-, M2-, M3-)): 160 ng/mL
- concentration at 8 h ([1]; male, Swiss albino, mouse, plasma, po, 10 mg/kg, PO 10.00 mg/kg, 8.00 h, read-out: Plasma concentration, Mean): 78.6 ng/mL
- concentration at 8 h ([1]; male, Swiss albino, mouse, plasma, po, 10 mg/kg, PO 10.00 mg/kg, 8.00 h, read-out: Plasma concentration, individual animals (M1-, M2-, M3-)): 85.5 ng/mL
- concentration at 24 h ([1]; male, Swiss albino, mouse, plasma, po, 10 mg/kg, PO 10.00 mg/kg, 24.00 h, BLQ: Below limits of quantitation, read-out: Plasma concentration, individual animals (M1-, M2-, M3-)): 1.79 ng/mL
- bioavailability ([1]; male, mouse, plasma, PO 10.00 mg/kg versus IV 2.00 mg/kg, Swiss albino mice, read-out: Bio availability (% f)): 27.3%
- AUC(0-inf) [1, 6]: 3050 ng·h/mL
- AUC(0-t) [1, 6]: 3010 ng·h/mL
- clearance [1, 6]: 10.9 mL/min/kg
- half-life [1, 6]: 1.31 h
- MRT last [1, 6]: 0.99 h
- AUC(0-inf) [1, 7]: 4160 ng·h/mL
- AUC(0-t) [1, 7]: 3750 ng·h/mL
- Cmax [1, 7]: 1910 ng/mL
- Tmax [1, 7]: 0.5 h
- half-life [1, 7]: 3.61 h
- MRT last [1, 7]: 2.03 h
SMILES: COc1ccc(-c2nnc(Nc3nc4c(OC)nccc4[nH]3)o2)cc1OC [KD025HCl, N-(4-Methoxy-1H-imidazo[4,5-c]pyridin-2-yl)-5-(3,4-dimethoxyphenyl)-1,3,4-oxadiazol-2-amine]
- Plasma concentration, individual animals (M1-, M2-, M3-) ([1]; IV 2.00 mg/kg, 1.00 h, Swiss albino mice, 2 mg/kg): 282.26 ng/mL and 11135.53 ng/mL and 952.05 ng/mL
- Plasma concentration, individual animals (M1-, M2-, M3-) ([1]; IV 2.00 mg/kg, 2.00 h, Swiss albino mice, 2 mg/kg): 277.23 ng/mL and 334.05 ng/mL and 611.15 ng/mL
- Plasma concentration, individual animals (M1-, M2-, M3-) ([1]; IV 2.00 mg/kg, 8.00 h, Swiss albino mice, 2 mg/kg): 11.09 ng/mL and 28.55 ng/mL and 16.02 ng/mL
- Plasma concentration, individual animals (M1-, M2-, M3-) ([1]; PO 10.00 mg/kg, 0.25 h, Swiss albino mice, 10 mg/kg): 1609.45 ng/mL and 742.75 ng/mL and 1428.60 ng/mL
- Plasma concentration, individual animals (M1-, M2-, M3-) ([1]; PO 10.00 mg/kg, 4.00 h, Swiss albino mice, 10 mg/kg): 179.52 ng/mL and 94.08 ng/mL and 235.20 ng/mL
- GPX4 protein (western blot) [2]: decrease
- HIF-2α protein relative to GAPDH (western blot) [3]: decreases
